Data on 20 compounds can be found in US9546152B2 (MERCK SHARP & DOHME CORP., priority 2012, dated 2017).

The target of test [1] is T1, human orexin-2 receptor (Homo sapiens (Human), UniProt O43614). Description: radioligand binding assay, orexin-2 receptor. Particulars: membranes prepared from CHO cells expressing the OX2 receptor; read-out: hOX2R BIND hKi. Here is the method:
(§1) In a typical experiment the OX1 and OX2 receptor antagonistic activity of the compounds of the present invention was determined in accordance with the following experimental method. For intracellular calcium measurements, Chinese hamster ovary (CHO) cells expressing the rat orexin-1 receptor or the human orexin-2 receptor, are grown in Iscove's modified DMEM containing 2 mM L-glutamine, […], 1% hypoxanthine-thymidine supplement, 100 U/ml penicillin, 100 μg/ml streptomycin and 10% heat-inactivated fetal calf serum (FCS). The cells are seeded at 20,000 cells/well into Becton-Dickinson black 384-well clear bottom sterile plates coated with poly-D-lysine. All reagents were from GIBCO-Invitrogen Corp. The seeded plates are incubated overnight at 37° C. and 5% CO2. Ala-6,12 human orexin-A as the agonist is prepared as a 1 mM stock solution in 1% bovine serum albumin (BSA) and diluted in assay buffer (HBSS containing 20 mM HEPES, 0.1% BSA and 2.5 mM probenecid, pH7.4) for use in the assay at a final concentration of 70 pM. Test compounds are prepared as 10 mM stock solution in DMSO, then diluted in 384-well plates, first in DMSO, then assay buffer. On the day of the assay, cells are washed 3 times with 100 μl assay buffer and then incubated for 60 min (37° C., 5% CO2) in 60 μl assay buffer containing 1 μM Fluo-4AM ester, 0.02% pluronic acid, and 1% BSA. The dye loading solution is then aspirated and cells are washed 3 times with 100 μl assay buffer. 30 μl of that same buffer is left in each well. Within the Fluorescent Imaging Plate Reader (FLIPR, Molecular Devices), test compounds are added to the plate in a volume of 25 μl, incubated for 5 min and finally 25 μl of agonist is added. Fluorescence is measured for each well at 1 second intervals for 5 minutes and the height of each fluorescence peak is compared to the height of the fluorescence peak induced by 70 pM Ala-6,12 orexin-A with buffer in place of antagonist. […] Alternatively, compound potency can be assessed by a radioligand binding assay (described in Bergman et. al. Bioorg. Med. Chem. Lett. 2008, 18, 1425-1430) in which the inhibition constant (Ki) is determined in membranes prepared from CHO cells expressing either the OX1 or OX2 receptor. The intrinsic orexin receptor antagonist activity of a compound which may be used in the present invention may be determined by these assays.

Test [2] has as its target T1, human orexin-2 receptor. The test can be described thus: FLIPR Ca2+ Flux Assay, orexin-2 receptor. The class given is cell-based. Particulars: CHO cells expressing the human orexin-2 receptor; agonist 70 pM Ala-6,12 human orexin-A; read-out: hOX2R FLIPR IC50. The procedure: as §1
For another test, the target named is rat orexin-1 receptor (Rattus norvegicus (Rat), UniProt P56718). The test can be described thus: FLIPR Ca2+ Flux Assay, orexin-1 receptor. It is filed as cell-based. Particulars: CHO cells expressing the rat orexin-1 receptor; agonist 70 pM Ala-6,12 human orexin-A; read-out: hOX1R FLIPR IC50. The procedure:
as §1

Chain of rat orexin-1 receptor (P56718 whole entry): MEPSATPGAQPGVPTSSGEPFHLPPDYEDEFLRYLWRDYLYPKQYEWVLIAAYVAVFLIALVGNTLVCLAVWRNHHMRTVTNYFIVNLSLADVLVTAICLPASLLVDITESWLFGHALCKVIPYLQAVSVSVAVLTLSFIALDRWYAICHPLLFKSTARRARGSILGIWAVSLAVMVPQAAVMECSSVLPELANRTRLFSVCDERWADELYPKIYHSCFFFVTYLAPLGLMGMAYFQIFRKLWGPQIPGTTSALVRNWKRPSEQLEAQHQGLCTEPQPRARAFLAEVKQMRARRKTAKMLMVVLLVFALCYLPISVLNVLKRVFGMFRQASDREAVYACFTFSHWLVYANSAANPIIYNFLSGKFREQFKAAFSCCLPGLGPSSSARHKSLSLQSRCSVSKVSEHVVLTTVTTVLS
T1 sequence (O43614 whole entry): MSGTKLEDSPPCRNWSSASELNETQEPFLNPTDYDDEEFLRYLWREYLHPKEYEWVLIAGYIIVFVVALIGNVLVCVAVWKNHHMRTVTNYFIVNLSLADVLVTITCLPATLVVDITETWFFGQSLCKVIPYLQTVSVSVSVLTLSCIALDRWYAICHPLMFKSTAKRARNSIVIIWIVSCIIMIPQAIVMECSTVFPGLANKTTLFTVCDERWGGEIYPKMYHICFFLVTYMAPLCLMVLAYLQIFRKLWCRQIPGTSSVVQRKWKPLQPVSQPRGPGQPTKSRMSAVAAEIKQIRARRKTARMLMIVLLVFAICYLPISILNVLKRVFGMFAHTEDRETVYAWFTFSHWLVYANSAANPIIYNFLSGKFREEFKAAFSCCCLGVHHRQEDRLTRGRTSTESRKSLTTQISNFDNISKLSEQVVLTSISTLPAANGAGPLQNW

For orientation: IC50 means the concentration that inhibits the measured activity by half. In the case of `Cc1c(C#N)ccnc1O[C@@H]1CC[C@@H](C)N(C(=O)c2ccccc2-n2nccn2)C1` [Example 1, 3-Methyl-2-{[(3R,6R)-6-methyl-1-{[2-(2H-1,2,3-triazol-2-yl)phenyl]carbonyl}piperidin-3-yl]oxy}pyridine-4-carbonitrile], the Ki at human orexin-2 receptor [1] amounted to 0.4 nM. For the same compound, the IC50 is 8 nM at human orexin-2 receptor [2] and 996 nM on rat orexin-1 receptor.

On to `COc1ccc(C(=O)N2C[C@H](Oc3nccc(C#N)c3C)CC[C@H]2C)c(-n2nccn2)n1` [Example 2, 2-{[(3R,6R)-1-{[6-Methoxy-2-(2H-1,2,3-triazol-2-yl)pyridin-3-yl]carbonyl}-6-methylpiperidin-3-yl]oxy}-3-methylpyridine-4-carbonitrile], for which the Ki on human orexin-2 receptor [1] came out at 3 nM. The IC50 on human orexin-2 receptor [2] amounted to 21 nM; on rat orexin-1 receptor, 5930 nM.

For the compound `Cc1c(C#N)ccnc1O[C@@H]1CC[C@@H](C)N(C(=O)c2cc(Cl)ccc2-n2nccn2)C1` [Example 3, 2-{[(3R,6R)-1-{[5-chloro-2-(2H-1,2,3-triazol-2-yl)phenyl]carbonyl}-6-methylpiperidin-3-yl]oxy}-3-methylpyridine-4-carbonitrile], on human orexin-2 receptor [1], the Ki worked out at 11.7 nM. The results for the IC50 at human orexin-2 receptor [2] and at rat orexin-1 receptor were 128 nM and 4730 nM, respectively.

Regarding `Cc1ccc(-n2nccn2)c(C(=O)N2C[C@H](Oc3nccc(C#N)c3C)CC[C@H]2C)c1` [Example 6, 3-methyl-2-{[(3R,6R)-6-methyl-1-{[5-methyl-2-(2H-1,2,3-triazol-2-yl)phenyl]carbonyl}piperidin-3-yl]oxy}pyridine-4-carbonitrile], the Ki on human orexin-2 receptor [1] worked out at 0.6 nM. Moreover, the results for the IC50 on human orexin-2 receptor [2] and at rat orexin-1 receptor were 7 nM and 292 nM, respectively.

`Cc1ccc(C(=O)N2C[C@H](Oc3nccc(C#N)c3C)CC[C@H]2C)c(-n2nccn2)c1` [Example 8, 3-methyl-2-{[(3R,6R)-6-methyl-1-{[4-methyl-2-(2H-1,2,3-triazol-2-yl)phenyl]carbonyl}piperidin-3-yl]oxy}pyridine-4-carbonitrile]: the Ki on human orexin-2 receptor [1] worked out at 0.6 nM. In addition, the figures for the IC50 on human orexin-2 receptor [2] and on rat orexin-1 receptor were 11 nM and 861 nM, respectively.

In the case of `Cc1c(C#N)ccnc1O[C@@H]1CC[C@@H](C)N(C(=O)c2ccc(F)cc2-n2nccn2)C1` [Example 9, 2-{[(3R,6R)-1-{[4-fluoro-2-(2H-1,2,3-triazol-2-yl)phenyl]carbonyl}-6-methylpiperidin-3-yl]oxy}-3-methylpyridine-4-carbonitrile], the Ki at human orexin-2 receptor [1] came to 0.5 nM. The values for the IC50 at human orexin-2 receptor [2] and on rat orexin-1 receptor were 12 nM and 1080 nM, respectively.

In the case of `Cc1c(C#N)ccnc1O[C@@H]1CC[C@@H](C)N(C(=O)c2cnccc2-n2nccn2)C1` [Example 10, 3-methyl-2-{[(3R,6R)-6-methyl-1-{[4-(2H-1,2,3-triazol-2-yl)pyridin-3-yl]carbonyl}piperidin-3-yl]oxy}pyridine-4-carbonitrile], the Ki at human orexin-2 receptor [1] turned out to be 8.1 nM. The values for the IC50 on human orexin-2 receptor [2] and at rat orexin-1 receptor were 55 nM and 7070 nM, respectively.

For `Cc1c(C#N)ccnc1O[C@@H]1CC[C@@H](C)N(C(=O)c2c(F)cccc2-n2nccn2)C1` [Example 11, 2-{[(3R,6R)-1-{[2-fluoro-6-(2H-1,2,3-triazol-2-yl)phenyl]carbonyl}-6-methylpiperidin-3-yl]oxy}-3-methylpyridine-4-carbonitrile], the Ki at human orexin-2 receptor [1] is 0.3 nM. The IC50 at human orexin-2 receptor [2] amounted to 10 nM; on rat orexin-1 receptor it was 611 nM.

Turning to `Cc1cccc(C(=O)N2C[C@H](Oc3nccc(C#N)c3C)CC[C@H]2C)c1-n1nccn1` [Example 13, 3-methyl-2-{[(3R,6R)-6-methyl-1-{[3-methyl-2-(2H-1,2,3-triazol-2-yl)phenyl]carbonyl}piperidin-3-yl]oxy}pyridine-4-carbonitrile], the Ki at human orexin-2 receptor [1] came out at 0.2 nM. The IC50 is 9 nM on human orexin-2 receptor [2] and 215 nM at rat orexin-1 receptor.

`COc1cccc(-n2nccn2)c1C(=O)N1C[C@H](Oc2nccc(C#N)c2C)CC[C@H]1C` [Example 14, 2-{[(3R,6R)-1-{[2-methoxy-6-(2H-1,2,3-triazol-2-yl)phenyl]carbonyl}-6-methylpiperidin-3-yl]oxy}-3-methylpyridine-4-carbonitrile]: the Ki on human orexin-2 receptor [1] was determined as 0.2 nM. Besides, the IC50 was 15 nM at human orexin-2 receptor [2] and 507 nM on rat orexin-1 receptor.

For the compound `Cc1cccc(-n2nccn2)c1C(=O)N1C[C@H](Oc2nccc(C#N)c2C)CC[C@H]1C` [Example 15, 3-methyl-2-{[(3R,6R)-6-methyl-1-{[2-methyl-6-(2H-1,2,3-triazol-2-yl)phenyl]carbonyl}piperidin-3-yl]oxy}pyridine-4-carbonitrile], the Ki on human orexin-2 receptor [1] was determined as 0.2 nM. In addition, the IC50 on human orexin-2 receptor [2] stood at 12 nM; at rat orexin-1 receptor, 693 nM.

As for `Cc1c(C#N)ccnc1O[C@@H]1CC[C@@H](C)N(C(=O)c2ccccc2C2CC2)C1` [Example 16, 2-({(3R,6R)-1-[(2-cyclopropylphenyl)carbonyl]-6-methylpiperidin-3-yl}oxy)-3-methylpyridine-4-carbonitrile], at human orexin-2 receptor [1], the Ki is 0.7 nM. For the same compound, the IC50 is 9 nM on human orexin-2 receptor [2] and 1740 nM at rat orexin-1 receptor.

As for `Cc1c(C#N)ccnc1O[C@@H]1CC[C@@H](C)N(C(=O)c2ccccc2C(F)(F)F)C1` [Example 17, 3-methyl-2-{[(3R,6R)-6-methyl-1-{[2-(trifluoromethyl)phenyl]carbonyl}piperidin-3-yl]oxy}pyridine-4-carbonitrile], at human orexin-2 receptor [1], the Ki was found to be 3.1 nM. In addition, the figures for the IC50 at human orexin-2 receptor [2] and on rat orexin-1 receptor were 21 nM and 4960 nM, respectively.

`CCOc1ccccc1C(=O)N1C[C@H](Oc2nccc(C#N)c2C)CC[C@H]1C` [Example 19, 2-({(3R,6R)-1-[(2-ethoxyphenyl)carbonyl]-6-methylpiperidin-3-yl}oxy)-3-methylpyridine-4-carbonitrile]: the Ki on human orexin-2 receptor [1] was 0.7 nM. Also, the results for the IC50 on human orexin-2 receptor [2] and at rat orexin-1 receptor were 6 nM and 2100 nM, respectively.

Take `Cc1c(C#N)ccnc1O[C@@H]1CC[C@@H](C)N(C(=O)c2c(F)cccc2-c2cscn2)C1` [Example 22, 2-{[(3R,6R)-1-{[2-fluoro-6-(1,3-thiazol-4-yl)phenyl]carbonyl}-6-methylpiperidin-3-yl]oxy}-3-methylpyridine-4-carbonitrile]: on human orexin-2 receptor [1], the Ki was determined as 0.3 nM. Besides, the IC50 on human orexin-2 receptor [2] was determined as 20 nM; on rat orexin-1 receptor it was 991 nM.

On to `Cc1c(C#N)ccnc1O[C@@H]1CC[C@@H](C)N(C(=O)c2ncccc2-c2cscn2)C1` [Example 24, 3-methyl-2-{[(3R,6R)-6-methyl-1-{[3-(1,3-thiazol-4-yl)pyridin-2-yl]carbonyl}piperidin-3-yl]oxy}pyridine-4-carbonitrile], for which the Ki on human orexin-2 receptor [1] worked out at 3.8 nM. For the same compound, the values for the IC50 on human orexin-2 receptor [2] and at rat orexin-1 receptor were 24 nM and 4900 nM, respectively.

Take `COc1ccc(C(=O)N2C[C@H](Oc3nccc(C#N)c3C)CC[C@H]2C)c(-c2cnn(C)c2)n1` [Example 80, 2-{[(3R,6R)-1-{[6-methoxy-2-(1-methyl-1H-pyrazol-4-yl)pyridin-3-yl]carbonyl}-6-methylpiperidin-3-yl]oxy}-3-methylpyridine-4-carbonitrile]: the results for the IC50 on human orexin-2 receptor [2] and at rat orexin-1 receptor were 171 nM and 10000 nM, respectively.

On to `COc1c(C#N)ccnc1O[C@@H]1CC[C@@H](C)N(C(=O)c2ccsc2-n2nccn2)C1` [Example 106, 3-methoxy-2-{[(3R,6R)-6-methyl-1-{[2-(2H-1,2,3-triazol-2-yl)thiophen-3-yl]carbonyl}piperidin-3-yl]oxy}pyridine-4-carbonitrile], for which the IC50 at human orexin-2 receptor [2] is 8 nM; at rat orexin-1 receptor it was 1960 nM.

Turning to `COc1c(C#N)ccnc1O[C@@H]1CC[C@@H](C)N(C(=O)c2ccsc2-c2ncccn2)C1` [Example 108, 3-methoxy-2-({(3R,6R)-6-methyl-1-[(2-pyrimidin-2-ylthiophen-3-yl)carbonyl]piperidin-3-yl}oxy)pyridine-4-carbonitrile], the IC50 was 14 nM at human orexin-2 receptor [2] and 713 nM on rat orexin-1 receptor.

In the case of `COc1ccc(C(=O)N2C[C@H](Oc3nccc(C#N)c3OC)CC[C@H]2C)c(-c2ncccn2)n1` [Example 113, 3-methoxy-2-({(3R,6R)-1-[(6-methoxy-2-pyrimidin-2-ylpyridin-3-yl)carbonyl]-6-methylpiperidin-3-yl}oxy)pyridine-4-carbonitrile], the IC50 on human orexin-2 receptor [2] amounted to 108 nM; on rat orexin-1 receptor, 10000 nM.
